Assay results as given in patent US8658639B2, “N-substituted-cyclic amino derivative” (Dainippon Sumitomo Pharma Co., Ltd, priority 2009, dated 2014).
pIC50: −log10 of the molar value.

Legend:
[1] = tested on: abdominal skin of CD male rats; experiment: Testing for irritation by single subcutaneous administration to rats; type: in vivo; design: key: — No inflammation; Amount of Inflammation: * < ** < *** < ****; Amount of Inflammation: * < ** < *** < ****; Amount of Inflammation: * < ** < *** < ****; Amount of Inflammation: * < ** < *** < ****; conditions: single subcutaneous administration 0.1 ml, 2% in DMSO and saline
Protocol: Experiment 2: Testing for Irritation by Single Subcutaneous Administration to Rats
A test compound was measured and dissolved in DMSO and a saline solution in a concentration of 2%.

[2] = molecular target: T1, Recombinant human renin (Homo sapiens, UniProt P00797); experiment: In vitro renin inhibitory activity assay; type: biochemical; conditions: recombinant human renin 4.2 ng/mL, substrate 4 μM, 37° C., one hour, pH 7.4
T1 sequence (P00797 67-406): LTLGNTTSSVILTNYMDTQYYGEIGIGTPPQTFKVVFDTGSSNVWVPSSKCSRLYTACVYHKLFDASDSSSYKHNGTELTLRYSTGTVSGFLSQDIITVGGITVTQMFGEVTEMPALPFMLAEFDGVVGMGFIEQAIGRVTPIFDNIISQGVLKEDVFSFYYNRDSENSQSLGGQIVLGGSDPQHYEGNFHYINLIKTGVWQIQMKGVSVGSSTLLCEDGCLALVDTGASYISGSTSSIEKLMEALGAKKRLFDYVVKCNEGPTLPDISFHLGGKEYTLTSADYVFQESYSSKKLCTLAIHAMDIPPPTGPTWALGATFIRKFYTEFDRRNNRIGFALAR
Protocol: Experiment 1: In Vitro Renin Inhibitory Activity Assay
Recombinant human renin (4.2 ng/mL) was reacted in 0.1M HEPES buffer (pH 7.4) containing 0.1M NaCl, 1 mM EDTA and 0.1 mg/mL BSA together with a substrate and a test compound at 37° C. for one hour. As the substrate, Arg-Glu(EDANS)-Ile-His-Pro-Phe-His-Leu-Val-Ile-His-Thr-Lys(DABCYL)-Arg (SEQ ID NO: 1) or DABCYL-γ-Abu-Ile-His-Pro-Phe-His-Leu-Val-Ile-His-Thr-EDANS (SEQ ID NO: 2) was added in such an amount so that the final concentration thereof became 4 μM. The elevated fluorescence intensity at the exciting wavelength 340 nm and the fluorescence wavelength 500 nm was measured by a fluorescence plate reader. The concentration of a test compound to be needed to inhibit an enzyme activity in the presence of a test compound in several concentrations by 50% was calculated as an IC50 value. The test compounds were diluted in DMSO and used in this Experiment.

pIC50 [2] | SMILES | Observation at Administration Site, One day after administration [1] | Observation at Administration Site, Three days after administration [1]
8.02 | CCC(=O)NCCN1C(=O)C(C)(C)Oc2cc(C)c(C(=O)N(C(C)C)C3CCCN(C(=O)OC(C)OC(=O)C4CCOCC4)C3)cc21 (single isomer, unassigned) [Example 87] | — | —
 | COCCCCN1C(=O)C(C)(C)Oc2cc(C(F)(F)F)c(C(=O)N(C(C)C)[C@@H]3CCCNC3)cc21.Cl [Comparative Example 1, 4-(4-methoxybutyl)-2,2-dimethyl-3-oxo-N-[(3R)-3-piperidinyl]-N-(2-propanyl)-7-(trifluoromethyl)-3,4-dihydro-2H-1,4-benzoxazine-6-carboxamide hydrochloride, reference compound] | *** | ****
 | CCC(=O)NCCN1C(=O)C(C)(C)Oc2cc(C(F)(F)F)c(C(=O)N(C(C)C)[C@@H]3CCCNC3)cc21.Cl [Comparative Example 2, 2,2-dimethyl-3-oxo-N-[(3R)-3-piperidinyl]-4-[2-(propanoylamino)ethyl]-N-(2-propanyl)-7-(trifluoromethyl)-3,4-dihydro-2H-1,4-benzoxazine-6-carboxamide hydrochloride, reference compound] | **** | ****
 | CCC(=O)NCCN1C(=O)C2(CCC2)Oc2cc(C)c(C(=O)N(C(C)C)[C@@H]3CCCNC3)cc21.Cl [Comparative Example 3, N-isopropyl-7-methyl-3-oxo-N-[(3R)-piperidin-3-yl]-4-[2-(propionylamino)ethyl]-3,4-dihydrospiro[1,4-benzoxazine-2,1′-cyclobutane]-6-carboxamide hydrochloride, reference compound] | **** | ****
8.29 | CCC(=O)NCCN1C(=O)C(C)(C)Oc2cc(C)c(C(=O)N(C(C)C)[C@@H]3CCCN(C(=O)OCc4oc(=O)oc4C)C3)cc21 [Example 2, (5-Methyl-2-oxo-1,3-dioxol-4-yl)methyl (3R)-3-[isopropyl({2,2,7-trimethyl-3-oxo-4-[2-(propionylamino)ethyl]-3,4-dihydro-2H-1,4-benzoxazin-6-yl}carbonyl)amino]piperidine-1-carboxylate] | — | —
7.32 | CCC(=O)NCCN1C(=O)C(C)(C)Oc2cc(C)c(C(=O)N(C(C)C)[C@@H]3CCCN(C(=O)O[C@H](C)OC(=O)CC)C3)cc21 [Example 53] |  | 
7.89 | CCC(=O)NCCN1C(=O)C(C)(C)Oc2cc(C)c(C(=O)N(C(C)C)C3CCCN(C(=O)OC(C)OC(=O)OC4CCCCC4)C3)cc21 (stereo not shown) [Example 54] |  | 
7.42 | CCC(=O)NCCN1C(=O)C(C)(C)Oc2cc(C)c(C(=O)N(C(C)C)C3CCCN(C(=O)OC(C)OC(=O)c4cccnc4)C3)cc21 (stereo not shown) [Example 59] |  | 
8.49 | CCC(=O)NCCN1C(=O)C(C)(C)Oc2cc(C)c(C(=O)N(C(C)C)C3CCCN(C(=O)OC(C)OC(=O)C4CCOCC4)C3)cc21 (stereo not shown) [Example 60] |  | 
8.55 | CCC(=O)NCCN1C(=O)C(C)(C)Oc2cc(C)c(C(=O)N(C(C)C)C3CCCN(C(=O)OC(C)OC(=O)C(N)C(C)C)C3)cc21 (stereo not shown) [Example 62] |  | 
9.02 | CCC(=O)NCCN1C(=O)C(C)(C)Oc2cc(C)c(C(=O)N(C(C)C)[C@@H]3CCCN(C(=O)OC(C)OC(=O)CCCO)C3)cc21 (stereo partly drawn) [Example 63, 1-[(4-Hydroxybutanoyl)oxy]ethyl (3R)-3-[isopropyl({2,2,7-trimethyl-3-oxo-4-[2-(propionylamino)ethyl]-3,4-dihydro-2H-1,4-benzoxazin-6-yl}carbonyl)amino]piperidine-1-carboxylate] |  | 
5.91 | CCC(=O)NCCN1C(=O)C(C)(C)Oc2cc(C)c(C(=O)N(C(C)C)[C@@H]3CCCN(C(=O)O[C@@H](C)OC(=O)C(C)C)C3)cc21 [Example 66] |  | 
6.60 | CCC(=O)NCCN1C(=O)C(C)(C)Oc2cc(C)c(C(=O)N(C(C)C)[C@@H]3CCCN(C(=O)O[C@H](C)OC(=O)C(C)C)C3)cc21 [Example 67] | ** | —
8.60 | Cc1oc(=O)oc1COC(=O)N1CCC[C@@H](N(C(=O)c2cc3c(cc2C(F)(F)F)OC2(CC2)C(=O)N3CCNC(=O)C(F)F)C(C)C)C1 [Example 71] |  | 
7.66 | CC(OC(=O)C(C)C)OC(=O)N1CCCC(N(C(=O)c2cc3c(cc2C(F)(F)F)OC2(CC2)C(=O)N3CCNC(=O)C(F)F)C(C)C)C1 (stereo not shown) [Example 72] |  | 
7.66 | CCC(=O)NCCN1C(=O)C(C)(COC)Oc2cc(C(F)(F)F)c(C(=O)N(C(C)C)C3CCCN(C(=O)OC(C)OC(=O)C(C)C)C3)cc21 (stereo not shown) [Example 74] |  | 
9.13 | CCC(=O)NCCN1C(=O)C(C)(COC)Oc2cc(C(F)(F)F)c(C(=O)N(C(C)C)C3CCCN(C(=O)OC(OC(=O)CC)C(C)C)C3)cc21 (stereo not shown) [Example 75] |  | 
9.25 | CCC(=O)NCCN1C(=O)C(C)(COC)Oc2cc(C(F)(F)F)c(C(=O)N(C(C)C)C3CCCN(C(=O)OC(OC(=O)C(C)C)C(C)C)C3)cc21 (stereo not shown) [Example 76] |  | 
7.70 | CCC(=O)NCCN1C(=O)C2(CCC2)Sc2cc(C)c(C(=O)N(C(C)C)[C@@H]3CCCN(C(=O)OCc4oc(=O)oc4C)C3)cc21 [Example 78] |  | 
6.30 | CCC(=O)NCCN1C(=O)C2(CCC2)Oc2cc(C)c(C(=O)N(C(C)C)[C@@H]3CCCN(C(=O)O[C@@H](C)OC(=O)C(C)C)C3)cc21 [Example 83] |  | 
7.68 | CCC(=O)NCCN1C(=O)C2(CCC2)Oc2cc(C)c(C(=O)N(C(C)C)C3CCCN(C(=O)OC(C)OC(=O)CCCOC)C3)cc21 (stereo not shown) [Example 84] |  | 
7.85 | CCC(=O)NCCN1C(=O)C(C)(COC)Oc2cc(C)c(C(=O)N(C(C)C)C3CCCN(C(=O)OC(C)OC(=O)CC)C3)cc21 (stereo not shown) [Example 86] |  | 
8.72 | CCC(=O)NCCN1C(=O)C2(CCC2)Oc2cc(C)c(C(=O)N(C(C)C)[C@@H]3CCCN(C(=O)OC(C)OC(=O)c4cccnc4)C3)cc21 (stereo partly drawn) [Example 89, 1-[({(3R)-3-[({7-Methyl-3-oxo-4-[2-(propanoylamino)ethyl]-3,4-dihydrospiro[1,4-benzoxazine-2,1′-cyclobutan]-6-yl}carbonyl)(2-propanyl)amino]-1-piperidinyl}carbonyl)oxy]ethyl 3-pyridine carboxylate] |  | 
6.14 | CCOC(=O)O[C@@H](C)OC(=O)N1CCC[C@@H](N(C(=O)c2cc3c(cc2C)OC(C)(C)C(=O)N3CCNC(=O)CC)C(C)C)C1 [Example 90] |  | 
6.15 | CCOC(=O)O[C@H](C)OC(=O)N1CCC[C@@H](N(C(=O)c2cc3c(cc2C)OC(C)(C)C(=O)N3CCNC(=O)CC)C(C)C)C1 [Example 91] |  | 
5.72 | CCC(=O)NCCN1C(=O)[C@](C)(COC)Oc2cc(C)c(C(=O)N(C(C)C)[C@@H]3CCCN(C(=O)O[C@@H](C)OC(=O)C(C)C)C3)cc21 [Example 94] |  | 
9.89 | CCC(=O)NCCN1C(=O)C2(CCC2)Oc2cc(C)c(C(=O)N(C(C)C)C3CCCN(C(=O)OC(C)OC(=O)C(F)F)C3)cc21 (stereo not shown) [Example 97] |  | 
8.04 | CCC(=O)NCCN1C(=O)C(C)(C)Oc2cc(C)c(C(=O)N(C(C)C)C3CCCN(C(=O)OC(C)OC(=O)CC4CC4)C3)cc21 (stereo not shown) [Example 98] |  | 
